Patent US20230235374A1, “High Throughput Assays for Detecting Translation Readthrough Inducers” (The Trustees of the University of Pennsylvania, priority 2021, published 2023)

How the values were obtained:
[1] = system: Atto(pep)-Stop-POST5 (RFC-dependent termination); experiment: Plate reader fluorescence anisotropy assay of pentapeptide release; format: biochemical, shrimp (Artemia salina); details: added ataluren 200-1,000 μM
Protocol: Plate reader assays were run in a Tecan F200® 96-well plate reader (Greiner® black, non-binding, chimney flat) equipped with 640 nm excitation and 700 nm polarization filters using 96-well plates. Atto(pep)-Stop-POST5 in Buffer 4 (0.1 μM, 80 μl) containing GTP (1 mM) was added to plate wells±ataluren at 25° C. eRF1 and eRF3 aliquots stored at −80° C. were thawed for 15 s at 37° C. and added directly to a premade ice-cold GTP (1 mM)±ataluren solution in Buffer 4. The resulting release factor solution was incubated at 25° C. for 1 min, and then added quickly in 80 μL portions to the Atto(pep)-Stop-POST5 containing wells with a multichannel pipette to the Atto(pep)-Stop-Posts wells. The final concentrations were: eRF1, 0.025-0.4 μM; eRF3, 0.8 μM; Atto(pep)-Stop-Posts, 0.05 μM. Fluorescence anisotropy decay graphs were fit with GraphPad Prism, using the one phase decay model to obtain peptide dissociation rates.
Ensemble fluorescence anisotropy results using Atto(pep)-Stop-POST5. The fluorescence anisotropy of the pentapeptidyl moiety of Atto(pep)-Stop-POST5 was quite high (0.22), and decreased following addition of RFC, providing a convenient measure of the rate of pentapeptide release from the ribosome. […] Each such time dependency could be fit to a single exponential, giving the collected rate constants presented in FIG. 9G, in which the rate dependence as a function of RFC concentration was measured at 0, 200, 500, and 1,000 μM ataluren. In the absence of ataluren, EC50 (0.029±0.002 μM) and Vmax (0.31±0.02) values were obtained for pentapeptide release similar to those measured by smTIRF. In addition, as with the smTIRF results, Vmax values were unaffected by added ataluren but EC50 values increased, reaching ˜0.06 μM at 1000 μM.

[2] = system: rRNA fragments I-IV of 80S-IRES; experiment: RNaseH fragment assay, 80S-IRES; format: binding, shrimp (Artemia salina); details: PAL, 300 μM AzAt, alone or plus competing ligand named as label
Protocol: RNaseH Fragment Assay. Total RNA was prepared from the ^3H-AzAt photoaffinity labeled ribosome by phenol-chloroform extraction. RNA: DNA duplexes were formed by incubating total RNA (0.2 μM) with an oligonucleotide pair (1 μM of each, sequences shown Table 1), flanking a specific RNA region, in 22.8 μL of water at 95° C. for 2 min, followed by annealing at 50° C. for 30 s and quenching on ice. Six units (1.2 μL) of RNase H (NEB) and 6 μl of 5×RNase H Reaction Buffer were next added to the RNA: DNA duplex and incubated at 37° C. for 1 hour, followed by phenol-chloroform extraction of RNA. The digested RNA was separated on 12% TBE-Urea PAGE gel, and the target band along with the adjacent upper and bottom gels were sliced by a 2 mm gel cutter. The gel slices were crushed and the ^3H labeled rRNA fragment was extracted in water by vigorously shaking at 70° C. for 30 min, or by overnight extraction in elution buffer (0.3M sodium acetate, 0.25% SDS, 1 mM EDTA). The slurry was removed by centrifugation and the eluted ^3H labeled rRNA in the supernatant was quantified. The stoichiometry of AzAt photoincorporation was calculated based on a gel recovery yield of 20±2%, determined using an authentic sample of [^3H]-Gln-tRNA^Gln.
Testing the functional pertinence of AzAt photolabeling of 18S A1195, 28S-A3093, 28S-A2672, and 28S-2669. An RNAse H fragment assay was employed to determine whether the potential functionally significant sites identified by LASER-seq correspond to ataluren binding sites relevant for termination activity. In this assay, oligonucleotide hybridization, RNase H digestion and polyacrylamide gel electrophoresis (PAGE) were used to determine the stoichiometry of [^3H]-AzAt photoincorporation into the three rRNA fragments that together include the four nucleotides of interest: Fragment I, 18S-A1195; Fragment II, 26S-A3093; Fragment III, 26S-A2669 and 26S-A2672 (Table 5). The separate addition of four potential competitors of AzAt binding (eRF1 alone, the stably bound eRF1.eRF3.GDPNP complex, ataluren, and the ataluren-like TRID GJ072) was used to test how these affected such photoincorporation. These experiments, the results of which are summarized in Table 5, were performed at two different AzAt concentrations. eRF1 and eRF1.eRF3.GDPNP effects were measured using 300 μM AzAt, paralleling the LASER-Seq PAL experiments.

[3] = system: Stop-POST5 complex; experiment: [3H]-AzAt photoaffinity labeling of Stop-POST5 complex; format: binding, shrimp (Artemia salina)
Protocol: Photoaffinity labeling with [^3H]-AzAt. Samples in Buffer 4, typically 20 μL, were incubated in the dark (20 min for Stop-POST5 and 80S-IRES complexes, 2 min for release factors) with various concentrations of [^3H]-AzAt at 37° C., transferred to a UV-transparent cuvette which was covered with parafilm to prevent evaporation, and irradiated in a Rayonet photochemical reactor equipped with 300 nm UV lamps for 5 min at room temperature. This was followed by quenching with 2 mM DTT at 37° C. for 5 min under ambient light. The irradiation time gave complete photolysis of the phenyl azide moiety in AzAt. Photolysis was also complete at 5 min in the presence of 1 mM ataluren, ruling out internal filtering effects.
Stop-POST5 and 80S-IRES complexes. 1 μM solutions of either Stop-POST5 or 80S-S.IRES, determined by A260, were photolabeled by [^3H]-AzAt. The sample was then either directly purified by ultracentrifugation through a sucrose cushion to determine the photoincorporation stoichiometry in the complex, or subjected to phenol/chloroform extraction to determine the photoincorporation stoichiometry in the total RNA. To determine the photoincorporation background arising from incomplete removal of noncovalently bound photolyzed AzAt, AzAt was prephotolysed for 5 min before adding to the complex, followed by the 20 min incubation in dark at 37° C. and subsequent sucrose cushion purification or RNA extraction as described above.

Compound	effect on Vmax values [1]	Photoincorporation yields into 18S A1195/ I: 18S 1151-1206 ([2]; 80S-IRES)	Photoincorporation yields into 26S-A2669:A2672/ III: 26S 2638-2702 ([2]; 80S-IRES)	Photoincorporation yields into 26S-A3093/ II: 26S 3069-3113 ([2]; 80S-IRES)	Photoincorporation yields into RNAse H Fragment IV: 26S 1413-1476 ([2]; 80S.IRES)	saturation labeling of Stop-POST5 [3]	share of photoincorporation found in RNA components of Stop-POST5 [3]	KA, AzAt photoincorporation into Stop-POST5 ([3]; fit to eq (1), FIG. 2B)	share of RNA photoincorporation found within 18S and 26S rRNA ([3]; urea-PAGE analysis)
O=C(O)c1cccc(-c2noc(-c3ccccc3F)n2)c1 [Ataluren]	unaffected								
[N-]=[N+]=Nc1ccc(-c2nc(-c3cccc(C(=O)O)c3)no2)cc1 [AzAt]		1.03 ± 0.33 mole %	1.01 ± 0.12 mole %	0.50 ± 0.09 mole %	0.29 ± 0.11%	1.2 /Stop-POST5	More than 80%	120 ± 60 µM	> 90%
